The test system of assay [1] is dengue virus type 1. Kind of assay: Antiviral activity against DENV1 FGA/89 infected in human Huh7.5 cells after 72 hrs by flow cytometric analysis. Type of assay: functional, organism-based. The note with it: FGA/89, Huh7.5, 72 h.
Assay [2] deals with dengue virus type 2. Nature of the assay: Antiviral activity against DENV2 ICC265 infected in human Huh7.5 cells after 72 hrs by flow cytometric analysis. Type of assay: functional, organism-based. The note with it: ICC265, Huh7.5, 72 h.
The test system of assay [3] is dengue virus type 3. Kind of assay: Antiviral activity against DENV3 5532 infected in human Huh7.5 cells after 72 hrs by flow cytometric analysis. In kind it is functional, organism-based. The note with it: Dengue virus, 5532, Huh7.5, 72 h.
In assay [4] the test system is dengue virus type 4. Kind of assay: Antiviral activity against DENV4 TVP360 infected in human Huh7.5 cells after 72 hrs by flow cytometric analysis. In kind it is functional, organism-based. The note with it: TVP360, Huh7.5, 72 h.
The test system of assay [5] is dengue virus type 1. Kind of assay: Antiviral activity against DENV1 02-20 infected in African green monkey Vero cells after 3 days by focus reduction assay. Type of assay: functional, organism-based. The note with it: 02-20, Vero, 72 h.
The subject of assay [6] is dengue virus type 2. Nature of the assay: Antiviral activity against DENV2 16681 infected in African green monkey Vero cells after 3 days by focus reduction assay. In kind it is functional, organism-based. The note with it: Dengue virus, 16681, Vero, 72 h.
Assay [7] relates to dengue virus type 3. Nature of the assay: Antiviral activity against DENV3 00-40 infected in African green monkey Vero cells after 3 days by focus reduction assay. Type of assay: functional, organism-based. The note with it: 00-40, Vero, 72 h.
In assay [8] the test system is dengue virus type 4. Kind of assay: Antiviral activity against DENV4 09-48 infected in African green monkey Vero cells after 3 days by focus reduction assay. In kind it is functional, organism-based. The note with it: 09-48, Vero, 72 h.
Assay [9] deals with dengue virus type 2. Nature of the assay: Antiviral activity against DENV2 infected in BHK cells assessed as reduction in viral Yield at 20 uM after 48 hrs by fluorescence focus formation assay relative to control. Further details: scale not given: the % may be the effect or the level left. In kind it is functional.
Assay [10] relates to dengue virus type 2. Kind of assay: Antiviral activity against DENV2 infected in human Huh7 cells assessed as reduction in viral Yield at 20 uM after 48 hrs by fluorescence focus formation assay relative to control. Type of assay: functional. Further details: scale not given: the % may be the effect or the level left.
Assay [11] concerns dengue virus type 1. Nature of the assay: Antiviral activity against DENV1 after 48 hrs by qRT-PCR analysis. In kind it is functional, organism-based.
Assay [12] has as its system dengue virus type 2. Nature of the assay: Antiviral activity against DENV2 after 48 hrs by qRT-PCR analysis. Type of assay: functional, organism-based.
Assay [13] relates to dengue virus type 3. Nature of the assay: Antiviral activity against DENV3 after 48 hrs by qRT-PCR analysis. Type of assay: functional, organism-based.
Assay [14] relates to dengue virus type 4. Kind of assay: Antiviral activity against DENV4 after 48 hrs by qRT-PCR analysis. In kind it is functional, organism-based.
Assay [15] relates to dengue virus type 1. Kind of assay: Antiviral activity against DENV1 infected in African green monkey Vero cells assessed as virus yield reduction after 48 hrs by measuring plaque forming units titration. In kind it is functional, organism-based.
Assay [16] concerns dengue virus type 2. Kind of assay: Antiviral activity against DENV2 infected in African green monkey Vero cells assessed as virus yield reduction after 48 hrs by measuring plaque forming units titration. In kind it is functional, organism-based.
Assay [17] has as its system dengue virus type 3. Kind of assay: Antiviral activity against DENV3 infected in African green monkey Vero cells assessed as virus yield reduction after 48 hrs by measuring plaque forming units titration. Type of assay: functional, organism-based.
Assay [18] relates to dengue virus type 4. Nature of the assay: Antiviral activity against DENV4 infected in African green monkey Vero cells assessed as virus yield reduction after 48 hrs by measuring plaque forming units titration. In kind it is functional, organism-based.
Assay [19] relates to dengue virus type 1. Nature of the assay: Antiviral activity against DENV1 infected in human HepG2 cells assessed as reduction in viral infection at 20 uM after 24 to 72 hrs by FFU assay relative to control. In kind it is functional. Further details: scale not given: the % may be the effect or the level left.
Assay [20] relates to dengue virus type 2. Nature of the assay: Antiviral activity against DENV2 infected in human HepG2 cells assessed as reduction in viral infection at 20 uM after 24 to 72 hrs by FFU assay relative to control. Type of assay: functional. Also on record: scale not given: the % may be the effect or the level left.
The subject of assay [21] is dengue virus type 3. Nature of the assay: Antiviral activity against DENV3 infected in human HepG2 cells assessed as reduction in viral infection at 20 uM after 24 to 72 hrs by FFU assay relative to control. Type of assay: functional. Also on record: scale not given: the % may be the effect or the level left.
Assay [22] deals with dengue virus type 4. Nature of the assay: Antiviral activity against DENV4 infected in human HepG2 cells assessed as reduction in viral infection at 20 uM after 24 to 72 hrs by FFU assay relative to control. In kind it is functional. Also on record: scale not given: the % may be the effect or the level left.
In assay [23] the test system is dengue virus type 2. Nature of the assay: Antiviral activity against DENV2 infected in […] BHK-15 cells after 48 hrs by luciferase reporter gene assay. In kind it is functional, organism-based. The note with it: BHK15, 48 h.
The test system of assay [24] is dengue virus type 2. Kind of assay: Antiviral activity against DENV2 ICC265 infected in human Huh7 cells assessed as reduction in viral titer by plaque assay. In kind it is functional, organism-based. The note with it: ICC265, Huh-7.
Assay [25] relates to dengue virus type 2. Kind of assay: Antiviral activity against DENV2 infected in African green monkey Vero cells by focus formation unit reduction assay. In kind it is functional, organism-based.
Assay [26] deals with dengue virus type 2. Kind of assay: Virucidal activity against DENV2. Type of assay: functional, organism-based.
Assay [27] has as its system dengue virus type 2. Nature of the assay: Antiviral activity against DENV2 infected in HEK293 cells assessed as reduction in plaque formation. In kind it is functional, organism-based.
The target in assay [28] is T1, Nonstructural protein 5 (Dengue virus, UniProt V5TFZ2). Nature of the assay: Inhibition of DENV2 2'-O-methyltransferase using m7G*pppA-RNA as substrate. Also on record: species or system dengue virus type 2.
T1 sequence (V5TFZ2 whole entry): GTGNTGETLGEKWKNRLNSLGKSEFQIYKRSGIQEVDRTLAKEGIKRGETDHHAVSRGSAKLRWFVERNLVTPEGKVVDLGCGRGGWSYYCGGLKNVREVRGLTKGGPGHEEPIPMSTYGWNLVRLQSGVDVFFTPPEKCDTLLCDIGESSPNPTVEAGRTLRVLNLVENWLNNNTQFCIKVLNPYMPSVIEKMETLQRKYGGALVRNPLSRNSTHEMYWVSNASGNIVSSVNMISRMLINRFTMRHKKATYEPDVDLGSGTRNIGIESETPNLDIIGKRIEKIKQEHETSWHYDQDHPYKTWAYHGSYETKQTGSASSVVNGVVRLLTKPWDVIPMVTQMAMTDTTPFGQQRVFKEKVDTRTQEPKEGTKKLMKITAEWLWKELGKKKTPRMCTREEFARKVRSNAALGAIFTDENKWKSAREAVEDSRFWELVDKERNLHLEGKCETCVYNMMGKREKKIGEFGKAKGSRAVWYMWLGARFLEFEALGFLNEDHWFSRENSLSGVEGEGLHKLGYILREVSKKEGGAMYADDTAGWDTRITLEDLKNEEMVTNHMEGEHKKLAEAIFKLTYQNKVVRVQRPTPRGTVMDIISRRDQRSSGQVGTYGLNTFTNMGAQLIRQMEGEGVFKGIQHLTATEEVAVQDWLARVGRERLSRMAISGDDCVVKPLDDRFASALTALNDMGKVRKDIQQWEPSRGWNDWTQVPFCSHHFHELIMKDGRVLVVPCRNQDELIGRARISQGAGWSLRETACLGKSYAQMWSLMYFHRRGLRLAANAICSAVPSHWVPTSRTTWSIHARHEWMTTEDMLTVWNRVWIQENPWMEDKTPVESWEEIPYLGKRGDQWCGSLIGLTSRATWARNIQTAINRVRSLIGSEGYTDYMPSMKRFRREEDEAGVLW
For assay [29], the target named is T1, Nonstructural protein 5. Kind of assay: Inhibition of DENV3 2'-O-methyltransferase using m7G*pppA-RNA as substrate. Further details: species or system dengue virus type 3.
Assay [30] in a line: Inhibition of DENV2 N7-methyltransferase using G*pppA-RNA as substrate. Further details: species or system dengue virus type 2.
A short description of assay [31]: Inhibition of DENV3 N7-methyltransferase using G*pppA-RNA as substrate. Also on record: species or system dengue virus type 3.
For assay [32], the system named is dengue virus type 1. Kind of assay: Antiviral activity against DENV1 infected in mouse RAW 264.7 cells by MTT assay. The note with it: RAW264.7. In kind it is functional, organism-based.
In assay [33] the test system is dengue virus type 2. Kind of assay: Antiviral activity against DENV2 infected in mouse RAW 264.7 cells by MTT assay. Type of assay: functional, organism-based. The note with it: RAW264.7.
The test system of assay [34] is dengue virus type 3. Nature of the assay: Antiviral activity against DENV3 infected in mouse RAW 264.7 cells by MTT assay. Type of assay: functional, organism-based. The note with it: RAW264.7.
The subject of assay [35] is dengue virus type 4. Kind of assay: Antiviral activity against DENV4 infected in mouse RAW 264.7 cells by MTT assay. The note with it: RAW264.7. In kind it is functional, organism-based.
The target in the next assay is Genome polyprotein (dengue virus type 2, UniProt P29990). Nature of the assay: Inhibition of Dengue virus NS2B-NS3 serine protease expressed in mouse RAW 264.7 cells. In kind it is cell-based.
Chain of Genome polyprotein (P29990 1346-1475 limits assumed): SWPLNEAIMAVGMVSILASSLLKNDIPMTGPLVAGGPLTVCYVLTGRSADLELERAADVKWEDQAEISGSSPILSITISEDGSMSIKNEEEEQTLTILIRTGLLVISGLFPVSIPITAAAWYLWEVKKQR
Chain of Genome polyprotein (P29990 1476-2093 limits assumed): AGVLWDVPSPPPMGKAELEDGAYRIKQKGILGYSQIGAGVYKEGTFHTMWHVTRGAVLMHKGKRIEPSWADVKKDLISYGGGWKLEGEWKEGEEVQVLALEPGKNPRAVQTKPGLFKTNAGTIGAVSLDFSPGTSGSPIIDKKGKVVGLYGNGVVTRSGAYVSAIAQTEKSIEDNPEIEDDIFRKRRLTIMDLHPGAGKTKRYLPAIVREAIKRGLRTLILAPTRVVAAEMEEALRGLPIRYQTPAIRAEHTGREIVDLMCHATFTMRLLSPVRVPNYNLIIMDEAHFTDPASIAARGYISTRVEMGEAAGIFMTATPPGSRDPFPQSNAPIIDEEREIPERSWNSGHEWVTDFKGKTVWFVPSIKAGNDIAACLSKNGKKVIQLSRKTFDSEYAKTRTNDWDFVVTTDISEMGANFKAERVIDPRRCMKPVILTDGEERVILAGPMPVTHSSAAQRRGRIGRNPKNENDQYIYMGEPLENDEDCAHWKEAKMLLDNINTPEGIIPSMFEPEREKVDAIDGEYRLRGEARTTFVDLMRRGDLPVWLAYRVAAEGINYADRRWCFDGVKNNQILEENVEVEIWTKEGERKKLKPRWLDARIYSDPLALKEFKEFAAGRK
The test system of assay [36] is dengue virus type 1. Kind of assay: Antiviral activity against DENV1 after 48 hrs by focus reduction assay. Type of assay: functional, organism-based.
In assay [37] the test system is dengue virus type 2. Kind of assay: Antiviral activity against DENV2 after 48 hrs by focus reduction assay. Type of assay: functional, organism-based.
For assay [38], the system named is dengue virus type 3. Nature of the assay: Antiviral activity against DENV3 after 48 hrs by focus reduction assay. Type of assay: functional, organism-based.
In assay [39] the test system is dengue virus type 4. Kind of assay: Antiviral activity against DENV4 after 48 hrs by focus reduction assay. Type of assay: functional, organism-based.

This note sets out measurements from ChEMBL document CHEMBL4396891, “Recent update on anti-dengue drug discovery” (Eur J Med Chem, 2019).

The structures appear in SMILES notation. In brackets after ≈: the same amount, converted by molar mass.

Turning to `O=C1C[C@@H](c2ccc(O)cc2)Oc2cc(O)cc(O)c21` [NARINGENIN], the EC50 in the assay on dengue virus type 1 [1], in the assay with dengue virus type 2 [2], in the assay on dengue virus type 3 [3] and in the assay on dengue virus type 4 [4] was 35.8 to 178 µM in each case.
Consider `CC(C)C[C@H]1C(=O)N2CCC[C@H]2[C@]2(O)O[C@](NC(=O)[C@@H]3C=C4c5cccc6[nH]c(Br)c(c56)C[C@H]4N(C)C3)(C(C)C)C(=O)N12` [BROMOCRIPTINE], for which the EC50 in the assay on dengue virus type 1 [5] was 1.6 µM; with dengue virus type 2 [6], 0.8 to 1.2 µM; with dengue virus type 3 [7], 0.8 to 1.2 µM; with dengue virus type 4 [8], 0.8 to 1.2 µM.
As to `C=CCc1ccc(O)c(-c2ccc(O)c(CC=C)c2)c1` [HONOKIOL], the Activity in the assay on dengue virus type 2 [9] and with dengue virus type 2 [10] was over 90% throughout.
On to `NCC(=O)Nc1ccc(-n2nc(C(F)(F)F)cc2-c2ccc3c(ccc4ccccc43)c2)cc1` [AR-12], for which the EC50 in the assay with dengue virus type 1 [11], in the assay with dengue virus type 2 [12], in the assay with dengue virus type 3 [13] and with dengue virus type 4 [14] was 0.6 to 0.8 µM each time.
As to `C=CCn1c2ccccc2c(=O)c2cc(Cl)ccc21`, the EC50 with dengue virus type 1 [15], in the assay on dengue virus type 2 [16], with dengue virus type 3 [17] and with dengue virus type 4 [18] was 12.5 to 27.1 µM throughout.
Take `COc1c(O)cc2oc3cc(O)c(CC=C(C)C)c(O)c3c(=O)c2c1CC=C(C)C` [MANGOSTIN]: the Activity in the assay with dengue virus type 1 [19], in the assay on dengue virus type 2 [20], with dengue virus type 3 [21] and with dengue virus type 4 [22] was 47 - 55% each time. The same compound displayed an EC50 in the assay on dengue virus type 2 [23] of 10 µM.
With `COc1cc2c(c(OC)c1OC)-c1c(cc(OC)c(OC)c1OC)C[C@H](C)[C@H](C)C2` [SCHISANDRIN A], the EC50 in the assay with dengue virus type 2 [24] is 28.1 µM.
Consider `O=C(O)[C@H]1O[C@@H](Oc2cc3oc(-c4ccccc4)cc(=O)c3c(O)c2O)[C@H](O)[C@@H](O)[C@@H]1O` [BAICALIN], for which the IC50 was 13.5 µg/mL (≈ 30.2 µM) in the assay with dengue virus type 2 [25] and 8.74 µg/mL (≈ 19.6 µM) with dengue virus type 2 [26].
Turning to `Cc1cnc(NC(=O)c2cc(S(=O)(=O)N(C)C)ccc2N2CCCC2)s1`, in the assay with dengue virus type 2 [27], the EC50 is 0.85 µM.
`CC1=C(Nc2c(C)cc(O)cc2O)C(=O)C=c2oc3c(c21)C(C)=C(Nc1c(C)cc(O)cc1O)C(=O)C=3`: the IC50 at Nonstructural protein 5 [28] lay in the range of 2.3 to 21 µM; against Nonstructural protein 5 [29] it was 2.3 to 21 µM; in assay [30], 28 to 32 µM; in [31], 28 to 32 µM.
Take `CC(=O)O[C@H]1CC(C)(C)C(=C=C/C(C)=C/C=C/C=C/C=C(C)/C=C2C=C(/C=C/[C@@]34O[C@]3(C)C[C@@H](O)CC4(C)C)C(=O)O/2)[C@](C)(O)C1`: the EC50 in the assay on dengue virus type 1 [32] was 5.84 to 7.62 µM; in the assay on dengue virus type 2 [33], 5.84 to 7.62 µM; in the assay on dengue virus type 3 [34], 5.84 to 7.62 µM; with dengue virus type 4 [35], 5.84 to 7.62 µM; at Genome polyprotein it was 8.5 µM.
For the compound `C[C@H]1CCC/C=C/[C@@H]2C[C@H](O)C[C@H]2[C@H](O)/C=C/C(=O)O1` [BREFELDIN A], the EC50 with dengue virus type 1 [36], in the assay on dengue virus type 2 [37], in the assay with dengue virus type 3 [38] and in the assay on dengue virus type 4 [39] was 54.6 to 65.7 µM throughout.
